{"source": "patent US10344034B2", "about": "“Pyrazolopyrimidone or Pyrrolotriazone derivatives, method of preparing same, and pharmaceutical applications thereof” (Shanghai Hengrui Pharmaceutical Co., Ltd., priority 2013, dated 2019)", "key": {"[1]": {"target": "rabbit GnRHr (Oryctolagus cuniculus, UniProt Q5U7L3)", "sequence (Q5U7L3 1-328)": "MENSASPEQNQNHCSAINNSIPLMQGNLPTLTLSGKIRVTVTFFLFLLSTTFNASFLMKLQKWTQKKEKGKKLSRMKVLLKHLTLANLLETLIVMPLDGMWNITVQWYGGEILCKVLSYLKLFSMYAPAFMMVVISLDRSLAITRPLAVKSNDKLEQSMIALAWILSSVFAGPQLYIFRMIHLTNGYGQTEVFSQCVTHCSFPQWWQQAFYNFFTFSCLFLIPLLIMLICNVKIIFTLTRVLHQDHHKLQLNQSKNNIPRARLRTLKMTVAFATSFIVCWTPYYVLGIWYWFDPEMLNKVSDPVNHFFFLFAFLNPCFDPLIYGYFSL", "assay": "Rabbit GnRHr inhibitory activity assay, rabbit GnRHr/CHO stably transfected cell lines", "type": "cell-based", "conditions": "rabbit GnRHr/CHO cells, GnRH polypeptide stimulant, Fluo-4", "procedure": "Test Example 3. Rabbit GnRHr Inhibitory Activity Assay of the Present Compounds\nThis assay was used to determine the inhibition effect of the present compounds on the activity of rabbit GnRHr protein expressed by rabbit GnRHr/CHO stably transfected cell lines.\nA mammalian expression vector containing the rabbit GnRHr gene was transferred into CHO cells by adding Lipofectamine® LTX reagent containing Plus™. Antibiotics were added the next day for screening to pick out the monoclonal cell lines.\nThe rabbit GnRHr/CHO stably transfected cell lines were inoculated in 96-well plates with an inoculation density of 25,000 cells/well. The culture medium was removed the next day, and loading buffer containing Fluo-4 dye was added to the plate (100 μL/well) and incubated for 30 minutes at 37° C. The plate was moved to room temperature and equilibrated for 10 minutes. Each compound was diluted with DMSO to seven concentration gradients of 100 μM, 10 μM, 1 μM, 0.1 μM, 0.01 μM, 0.001 μM, 0.0001 μM. Then, 1 μl of each gradient was added to each well and incubated for 10 minutes at room temperature. After automated addition of 50 μL of GnRH polypeptide stimulant solution, the value was immediately detected at 494/516n M by a microplate reader (flexstation 3). IC50 values of the compounds were calculated by software from different fluorescence signals at various corresponding concentrations.\nThe inhibitory activity of the present compounds on rabbit GnRHr was determined by the above assay, and IC50 values are shown in Table 1."}, "[2]": {"assay": "Rat pharmacokinetics assay", "type": "in vivo, Sprague-Dawley (SD) rats", "conditions": "for AUC: read-out: Area under curve AUC; for half-life: read-out: Half-life T1/2 (converted); for MRT: read-out: Residence time MRT", "procedure": "Test Example 4. Rat pharmacokinetics assay of the compounds of Example 2, Example 3, Example 5, Example 9, Example 10, Example 11, and Example 13 of the present invention.\nSprague-Dawley (SD) rats were used as test animals. The plasma concentrations at various times were determined by LC/MS/MS after intragastric administration of compounds of Example 2, Example 3, Example 5, Example 9, Example 10, Example 11, and Example 13, and intravenous administration of the compound of Example 11 to the rats. The pharmacokinetic behavior of the present compounds in rats was studied, and the pharmacokinetic features were evaluated.\nThirty-two (32) healthy adult SD rats (half female and half male) were evenly designated into 8 groups (4 for each group). The animals were purchased from Shanghai Super B&K Laboratory Animal Corp. Ltd (laboratory animal production Certificate No. SCXK (HU)2008-0016).\nAn appropriate amount of sample was weighed, and added with 0.5% CMC-Na to form a 1 mg/ml suspension upon ultrasonic treatment.\nAppropriate amounts of drugs were weighed, and dissolved with 0.5 ml DMSO and 0.5 ml of Tween 80. Saline solution was added to the final volume.\nThirty-two (32) SD rats (half female and half male) were evenly designated into 8 groups (4 for each group), and administered by oral gavage or intravenous injection (i.v.) (oral gavage at a dosage of 10 mg/kg or 30 mg/kg, and i.v. at a dosage of 5.0 mg/kg), respectively, at a volume of 10 ml/kg after fasting overnight.\n0.1 ml of blood was sampled before, and 0.5, 1, 2, 4, 6, 8, 11, and 24 hours after administration, collected in a heparinized test tube, and centrifuged at 3500 rpm for 10 minutes to separate the plasma, which was stored at −20° C. The animals were allowed access to feed 2 hours after administration.\nThe content of the test compound in the plasma of rats after administration of the compound by oral gavage was determined by LC/MS/MS."}, "[3]": {"assay": "Seven-day toxicokinetic evaluation in rats", "design": "species or system SD rats", "conditions": "rat, in vivo; for AUC(0-inf): AUC0-∞; for MRT inf: MRT0-∞", "procedure": "Test Example 8. Seven-Day Toxicokinetic Evaluation of the Compound of Example 11 in Rats\nSD rats were used as test animals. The plasma concentration at various times was determined by LC/MS/MS after administration of the compound of Example 11 (SHR147280) by oral gavage for 7 days. The compound toxicity in rodents was preliminarily assessed according to the potential toxicity reaction and severity level of the body.\nTwenty-four (24) healthy adult SD rats (half female and half male) were evenly designated into 4 groups (6 for each group). The animals were purchased from Shanghai SLAC Laboratory Animal Corp. Ltd (laboratory animal production Certificate No. SCXK (HU) 2012-0002).\nAn appropriate amount of sample was accurately weighed, and added with some 0.5% CMC-Na to form an uniform suspension upon ultrasonicator grinding treatment, and then diluted to the final volume. The test sample solutions on day 1 and day 7 were kept for the determination of administration concentration of toxicokinetics.\nRepeat oral doses were 80, 240, and 720 mg/kg, and administration concentrations were 8, 24, and 72 mg/ml respectively. The dosing volume was 10 ml/kg once daily for 7 days.\nThe blood was sampled on day 1 and day 7 after administration with sampling time before, and 1, 2, 4, 8 and 24 hours after oral administration on day 1, as well as before, and 1, 2, 4, 8, 24 and 48 hours after oral administration on day 7. The blood sample was collected in a heparinized test tube, and centrifuged to separate the plasma, which was stored at −20° C. The content of the test compound in the plasma of rats after administration of the compound by oral gavage was determined by LC/MS/MS."}, "[4]": {"conditions": "both sexes, Sprague-Dawley, plasma, iv, i.v. 5 mg/kg"}, "[5]": {"conditions": "both sexes, Sprague-Dawley, plasma, oral 10 mg/kg"}}, "note": "Like-named read-outs stand apart in the source and are kept apart here."}
{"smiles": "CONC(=O)Nc1ccc(-n2nc3c(c2CN(C)C)c(=O)n(-c2ccc(OC)nn2)c(=O)n3Cc2c(F)cccc2F)cc1", "note": "[Example 11, 1-(4-(7-(2,6-difluorobenzyl)-3-((dimethylamino)methyl)-5-(6-methoxypyridazin-3-yl)-4,6-dioxo-4,5,6,7-tetrahydro-2H-pyrazolo[3,4-d]pyrimidin-2-yl)phenyl)-3-methoxyurea]", "values": [{"measurement": "IC50", "setting": "[1]", "result": 0.57, "unit": "nM"}, {"measurement": "AUC", "setting": "[2]; [4]", "result": "2.67 ± 1.24", "unit": "µg·h/mL"}, {"measurement": "half-life", "setting": "[2]; [4]", "result": "1.59 ± 0.5", "unit": "h"}, {"measurement": "MRT", "setting": "[2]; [4]", "result": "2.25 ± 0.06", "unit": "h"}, {"measurement": "Vd/F", "setting": "[2]; both sexes, Sprague-Dawley, plasma, oral 10 mg/kg, read-out: Apparent volume of distribution Vz/F", "result": "3.29 ± 1.51", "unit": "L/kg"}, {"measurement": "AUC", "setting": "[2]; [5]", "result": "4.09 ± 1.44", "unit": "µg·h/mL"}, {"measurement": "CL/F", "setting": "[2]; both sexes, Sprague-Dawley, plasma, oral 10 mg/kg, read-out: Clearance rate CL/F", "result": "44.2 ± 13.4", "unit": "mL/min/kg"}, {"measurement": "half-life", "setting": "[2]; [5]", "result": "0.84 ± 0.18", "unit": "h"}, {"measurement": "Cmax", "setting": "[2]; both sexes, Sprague-Dawley, plasma, oral 10 mg/kg, read-out: Plasma concentration Cmax", "result": "2440 ± 873", "unit": "ng/mL"}, {"measurement": "MRT", "setting": "[2]; [5]", "result": "1.56 ± 0.34", "unit": "h"}, {"measurement": "Apparent volume of distribution Vz/F", "setting": "[2]; i.v. 5 mg/kg", "result": "4.929 ± 2.39", "unit": "L/kg"}, {"measurement": "Clearance rate CL/F", "setting": "[2]; i.v. 5 mg/kg", "result": "35.4 ± 12.5", "unit": "mL/min/kg"}, {"measurement": "NOAEL at 7 days", "setting": "[3]; both sexes, SD, po", "result": 240, "unit": "mg/kg"}, {"measurement": "lethal dose", "setting": "[3]; both, SD, po, 7 days", "result": 720, "unit": "mg/kg"}, {"measurement": "CLz/F", "setting": "[3]; female, SD, 80 mg/kg", "result": 7.71, "unit": "mL/min/kg"}, {"measurement": "CLz/F", "setting": "[3]; female, SD, 240 mg/kg", "result": 5.82, "unit": "mL/min/kg"}, {"measurement": "AUC0-t", "setting": "[3]; female, SD, po, 80 mg/kg", "result": 282.074, "unit": "µg·h/mL"}, {"measurement": "AUC0-∞", "setting": "[3]; female, SD, po, 80 mg/kg", "result": 313.468, "unit": "µg·h/mL"}, {"measurement": "Cmax", "setting": "[3]; female, SD, po, 80 mg/kg", "result": 19550, "unit": "ng/mL"}, {"measurement": "MRT0-∞", "setting": "[3]; female, SD, po, 80 mg/kg", "result": 9.23, "unit": "h"}, {"measurement": "Vd/F", "setting": "[3]; female, SD, po, 80 mg/kg", "result": 2.09, "unit": "L/kg"}, {"measurement": "AUC0-t", "setting": "[3]; female, SD, po, 80 mg/kg, AUC0-t", "result": 173, "unit": "µg·h/mL"}, {"measurement": "AUC(0-inf)", "setting": "[3]; female, SD, po, 80 mg/kg", "result": 174, "unit": "µg·h/mL"}, {"measurement": "Cmax", "setting": "[3]; female, SD, po, 80 mg/kg, Cmax", "result": 17800, "unit": "ng/mL"}, {"measurement": "MRT inf", "setting": "[3]; female, SD, po, 80 mg/kg", "result": 5.82, "unit": "h"}, {"measurement": "AUC0-t", "setting": "[3]; female, SD, po, 240 mg/kg", "result": 790.873, "unit": "µg·h/mL"}, {"measurement": "AUC0-∞", "setting": "[3]; female, SD, po, 240 mg/kg", "result": 840.45, "unit": "µg·h/mL"}, {"measurement": "Cmax", "setting": "[3]; female, SD, po, 240 mg/kg", "result": 51150, "unit": "ng/mL"}, {"measurement": "MRT0-∞", "setting": "[3]; female, SD, po, 240 mg/kg", "result": 7.97, "unit": "h"}, {"measurement": "Vd/F", "setting": "[3]; female, SD, po, 240 mg/kg", "result": 2.87, "unit": "L/kg"}, {"measurement": "t1/2", "setting": "[3]; female, SD, po, 240 mg/kg", "result": 4.26, "unit": "h"}, {"measurement": "tmax", "setting": "[3]; female, SD, po, 240 mg/kg", "result": 6.0, "unit": "h"}, {"measurement": "AUC0-t", "setting": "[3]; female, SD, po, 240 mg/kg, AUC0-t", "result": 639, "unit": "µg·h/mL"}, {"measurement": "AUC(0-inf)", "setting": "[3]; female, SD, po, 240 mg/kg", "result": 690, "unit": "µg·h/mL"}, {"measurement": "Cmax", "setting": "[3]; female, SD, po, 240 mg/kg, Cmax", "result": 41500, "unit": "ng/mL"}, {"measurement": "MRT inf", "setting": "[3]; female, SD, po, 240 mg/kg", "result": 9.63, "unit": "h"}, {"measurement": "half-life", "setting": "[3]; female, SD, po, 240 mg/kg, t1/2", "result": 5.73, "unit": "h"}, {"measurement": "tmax", "setting": "[3]; female, SD, po, 240 mg/kg, tmax", "result": 8, "unit": "h"}, {"measurement": "AUC0-t", "setting": "[3]; female, SD, po, 720 mg/kg", "result": 2838.65, "unit": "µg·h/mL"}, {"measurement": "Cmax", "setting": "[3]; female, SD, po, 720 mg/kg", "result": 138000, "unit": "ng/mL"}, {"measurement": "tmax", "setting": "[3]; female, SD, po, 720 mg/kg", "result": 24.0, "unit": "h"}, {"measurement": "AUC0-t", "setting": "[3]; female, SD, po, 720 mg/kg, AUC0-t", "result": 1550, "unit": "µg·h/mL"}, {"measurement": "Cmax", "setting": "[3]; female, SD, po, 720 mg/kg, Cmax", "result": 69300, "unit": "ng/mL"}, {"measurement": "tmax", "setting": "[3]; female, SD, po, 720 mg/kg, tmax", "result": 16, "unit": "h"}, {"measurement": "potential toxic target organs", "setting": "[3]; po", "result": "marrow hematopoietic system, thymus, heart, liver, lung, spleen, adrenal gland, ovary, and digestion system"}]}
